Source: US20100226885A1, “METHOD OF TREATING HEPATITIS C PATIENTS” (priority 2007, published 2010)

Assays:
HCV genotype 1 = assay: Example 2: Phase II study of treatment-naïve patients, plasma HCV RNA by Roche COBAS TaqMan HCV/HPS assay; assay type: in vivo, human; settings: addition to PegIntron/REBETOL combination therapy, 28 and 48 week regimens
Description: The effectiveness of a lead-in period with interferon and ribavirin combination therapy prior to the addition of an HCV protease inhibitor was further evaluated in a study of 595 treatment-naïve patients infected with HCV genotype 1. In this study, boceprevir (compound of Formula 1a) is being evaluated, compared to a control of PegIntron® (peginterferon alfa-2b) at 1.5 mcg/kg QW plus REBETOL® (ribavirin, USP) (800-1400 mg/day) for a treatment period of 48 weeks, in three treatment regimens: • P/R Lead-In +B/P/R: • PegIntron (1.5 mcg/kg QW) in combination with REBETOL (800-1400 mg/day) during a first treatment period of 4 weeks followed by adding boceprevir (800 mg TID) to the combination during a second treatment period of 24 or 44 weeks; thus, the total treatment time with PegIntron and REBETOL was 28 or 48 weeks; • B/P/R: • boceprevir (800 mg TID) in combination with PegIntron (1.5 mcg/kg QW) plus REBETOL (800-1400 mg/day) for a single treatment period of 28 or 48 weeks; and • B/P/Low-dose R: • boceprevir (800 mg TID) in combination with PegIntron (1.5 mcg/kg QW) plus low-dose REBETOL (400-1000 mg/day) for a single treatment period of 48 weeks. […]
Plasma HCV RNA levels were measured using the Roche COBAS TaqMan® HCV/HPS assay (Roche Molecular Systems, Somerville, N.J.).

Hepatitis C = settings: by week four; VX-950 alone; cited from earlier work

CC(C)(C)NC(=O)N[C@H](C(=O)N1CC2C([C@H]1C(=O)NC(CC1CCC1)C(=O)C(N)=O)C2(C)C)C(C)(C)C (some centres unmarked) [boceprevir]
SVR compared to the PegIntron/REBETOL control (HCV genotype 1): markedly increased SVR

CCC[C@H](NC(=O)[C@@H]1[C@H]2CCC[C@H]2CN1C(=O)[C@@H](NC(=O)[C@@H](NC(=O)c1cnccn1)C1CCCCC1)C(C)(C)C)C(=O)C(=O)NC1CC1 [VX-950]
treated patients showing evidence of negative HCV status (Hepatitis C): 79%
